Reference: patent US20230190937A1, “IRON COMPLEXES OF ESTERIFIED DERIVATIVES OF NATURAL PRODUCTS, AND METHODS OF USE” (CORNELL UNIVERSITY, priority 2021, published 2023)

Method: Preparation of curcumin in coconut oil. To a round bottom flask with a magnetic stir bar, 20 mg of curcumin and 25 mL (23000 mg) of coconut oil were added. The flask was placed in a water bath at 40° C. and the mixture was stirred for 30 min. The sample was then cooled to room temperature and centrifuged to remove non-dissolved residue of curcumin.
(§1) The sample was then cooled to room temperature and used for the next studies.
as §1

solubility (concentration) in coconut oil: around 0.08 wt %
Structure (SMILES): COc1cc(/C=C/C(=O)CC(=O)/C=C/c2ccc(O)c(OC)c2)ccc1O [curcumin]
